The nature of series [1]: Enhanced exposure with stomach acidification: pharmacokinetics of ATR-101 tablets in dogs. In kind it is in vivo. To be noted: male beagle dogs, single 125 mg ATR-101 tablet oral; pretreated with pentagastrin compared to pretreatment with famotidine. The protocol:
To examine pharmacokinetics and exposures of ATR-101 tablets prepared according to Example 6, an in vivo study was carried out in dogs following pretreatment with pentagastrin to decrease stomach pH, or famotidine to increase the stomach pH.
The same cohort of dogs was used in both treatments and included a 5-day wash-out between the treatment arms. Male beagle dogs (approximately 6.5-12.5 kg, n=6) were fasted overnight prior to dosing and through the first 4 hours of blood sample collection. For the pentagastrin arm, the animals were pretreated with a single intramuscular injection of pentagastrin (0.06 mg/mL at a dose level of […] and a dose volume of 0.01 mL/kg) 16 to 22 minutes prior to test article administration. For the famotidine arm, animals were pretreated with a single oral tablet dose of 20 mg famotidine at 59 to 60 minutes prior to tablet administration.
Following tablet administration, each animal received 30 mL of tap water via oral gavage. Animals were treated with a single 125 mg ATR-101 tablet by oral administration. The tablet was made as described in Example 6 above, and contained the ingredients listed in Table 6, but with the amount of ATR-101 at 125 mg (as free base) rather than 500 mg and the remaining ingredients reduced by the same weight percentage. […] ATR-101 concentrations were determined by LC/MSMS.

A further series relates to ACC. To be noted: cited from earlier work.

Structures can show the parent of a compound that is named as a salt.

As for `CC(C)c1cccc(C(C)C)c1NC(=O)NCC1(c2ccc(N(C)C)cc2)CCCC1` [ATR-101, N-(2,6-bis(1-methylethyl)phenyl)-N′-((1-(4-(dimethylamino)phenyl)cyclopentyl)methyl)urea hydrochloride], in series [1], the “increase in systemic exposure” value worked out at 57%.

Regarding `Clc1ccc(C(c2ccccc2Cl)C(Cl)Cl)cc1` (stereo not drawn) [mitotane], the “delay of disease progression (average)” value in the series with ACC (ACC patients that derive a therapeutic benefit) was “five”. Besides, the “patients with increased progression-free survival” value with ACC (ACC patients, fraction of patients) is “one-quarter to one-third”.
